Entries after “also recorded” stand apart in the source; their conditions may differ.
What was measured:
[1] = test system: mouse fibroblast cells treated with exogenous Oct4/Sox2/Klf4/Myc polypeptides; test: Oct4-positive colonies from an intermediate iPSC clone after small molecule treatment (Example 3, FIG. 5); format: cell-based; settings: combined treatment 0.5 μM PD0325901, 3 μM CHIR99021, 0.5 μM A-83-01, counted 2 weeks after treatment
Protocol: FIG. 5. […] A comparison of the number of Oct4^+ iPS cell colonies generated from mouse fibroblast cells treated with exogenous Oct4/Sox2/Klf4/Myc polypeptides, and with or without 0.5 μM PD0325901, 3 μM CHIR99021, and 0.5 μM A-83-01. Y-axis represents percentage of Oct4′ colonies within total number of colonies.
We tested the TGFβ receptor inhibitor (A-83-01), MEK inhibitor (PD0325901) and GSK-3 inhibitor (CHIR99021), on mouse fibroblast cells that were treated with exogenous Oct4, Klf4, Sox2 and c-Myc polypeptides, for their effects on reprogramming kinetics and efficiency.
Mouse fibroblasts were grown in mESC growth medium [Knockout DMEM (Invitrogen) supplemented with 10% ES-FBS+10% KSR, 0.1 mM 2-ME, 1% Glutamax, 1% Non-essential amino acids, 1% EmbryoMax ESC Qualified Nucleosides (Millipore), and 10^3 units/ml LIF (ESGRO, Chemicon International)] supplemented with 8 μg/ml of Oct4/Sox2/Klf4/Myc (all four transcription factors are tagged with poly-Arg […]; SEQ ID NO:2) for 4-12 hours, followed by culturing the cells in the absence of the Oct4/Sox2/Klf4/Myc polypeptides for one day. This procedure was repeated 4 times. The cells were then cultured in mESC medium for another two weeks. iPSC clones were detected by colony morphology and expression of pluripotency markers. An intermediate iPSC clone, which expresses ALP but not Oct4 (Oct4), was dissociated with Trypsin-EDTA. The clone was then expanded by continuous culturing with regular mESC medium or medium supplemented with 0.5 μM PD0325901, 3 μM CHIR99021, 0.5 μM A-83-01. The number of Oct4-positive colonies were counted 2 weeks after small molecule treatment (FIG. 5).

[2] = test system: cellular reprogramming; test: Enhancement of cellular reprogramming by nuclear receptor ligands; format: cell-based
[3] = test system: Mouse fibroblasts; test: Induction of pluripotency in mouse fibroblasts by intermittent incubation with poly-Arg transcription factor proteins (Example 1); format: cell-based; settings: added and/or combined during protein treatment of mouse fibroblasts
Protocol: Mouse fibroblasts were grown in mESC medium supplemented with 8 μg/ml of either Oct4/Sox2/Klf4 or Oct4/Sox2/Klf4/Myc (all proteins comprising poly-Arg as described above) for 6-8 hours, washed, and incubated for 2-3 days in mESC media without the above-listed transcription factors. This (4-12 hours with, 1-3 days without) was repeated a number (1, 2, 3, 4, or more) of times and then the cells were cultures in mESC for two weeks.

[4] = test system: reprogramming efficiency; settings: HDAC inhibitor; Huangfu et al. 2008a; cited from earlier work

SMILES | effect on reprogramming efficiency and kinetics / iPSC generation (Oct4-positive colonies) [1] | effect on efficiency and speed of development of pluripotent cells [3] | further results
Cc1cccc(-c2nn(C(=S)Nc3ccccc3)cc2-c2ccnc3ccccc23)n1 [A-83-01, 3-(6-Methyl-2-pyridinyl)-N-phenyl-4-(4-quinolinyl)-1H-pyrazole-1-carbothioamide] | increases reprogramming efficiency and accelerates reprogramming kinetics; also recorded: enhanced iPSC generation | – | –
C=C(c1ccc(C(=O)O)cc1)c1cc2c(cc1C)C(C)(C)CCC2(C)C [Bexarotene] | – | – | effect on cellular reprogramming ([2]; 3 μM): can enhance cellular reprogramming
Cc1c[nH]c(-c2cnc(NCCNc3ccc(C#N)cn3)nc2-c2ccc(Cl)cc2Cl)n1 [CHIR99021] | increases reprogramming efficiency and accelerates reprogramming kinetics; also recorded: enhanced iPSC generation | improved efficiency and speed of development of pluripotent cells | –
CC(C)C[C@H](NC(=O)OCC1c2ccccc2-c2ccccc21)C(=O)O [Fmoc-Leu] | – | – | effect on cellular reprogramming ([2]; 5 μM): can enhance cellular reprogramming
O=C(NOC[C@H](O)CO)c1ccc(F)c(F)c1Nc1ccc(I)cc1F [PD0325901] | increases reprogramming efficiency and accelerates reprogramming kinetics | improved efficiency and speed of development of pluripotent cells | effect on reprogramming efficiency and kinetics / iPSC generation (Oct4-positive colonies) ([1]; listed as PD0320501): enhanced iPSC generation
NC(=O)c1ccc(-c2nc(-c3ccc4c(c3)OCO4)c(-c3ccccn3)[nH]2)cc1 [SB431542] | – | improved efficiency and speed of development of pluripotent cells | –
CCCC(CCC)C(=O)O [valproic acid] | – | – | effect on reprogramming efficiency [4]: can significantly improve the reprogramming efficiency

— patent US9068170B2, “Generation of pluripotent stem cells using recombinant proteins” (THE SCRIPPS RESEARCH INSTITUTE, priority 2008, dated 2015)
